Data as given in US5140014A (Abbott Laboratories, priority 1989, dated 1992).
≈ marks a conversion by molar mass, not a printed value. Read-outs that look alike come from different tables or passages of the source.

Columns and labels:
Test in all cases: in vitro antibacterial activity, agar dilution method (MIC)
Assay type in all cases: cell-based
Enterobacter Aerogenes = conditions: BHI agar, 20-24 hours
How it was run: (§1)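 Agar dilution in Brain Heart Infusion agar, usually 12 two-fold dilutions from a 2,000 ug/mL stock. Overnight BHI broth cultures were diluted 1:100 (1:10 for slow growers such as Streptococcus), and ~10^4 organisms were spotted per plate. MIC read after 20-24 h at 35°-37° C as lowest concentration giving no growth, slight haze or sparse colonies versus growth control.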

Enterococcus Faecium = conditions: BHI agar, 20-24 hours
How it was run: as §1

Staphylococcus Aureus = conditions: BHI agar, 20-24 hours
How it was run: as §1

Streptococcus Pyogenes = system: Streptococcus Pyogenes
How it was run: as §1

Micrococcus Luteus = conditions: BHI agar, 20-24 hours
How it was run: as §1

Providencia Stuartii = conditions: Providencia stuartii; strain CMX 640; BHI agar, 20-24 hours; read-out: MIC
How it was run: as §1

Klebsiella Pneumoniae = conditions: BHI agar, 20-24 hours
How it was run: as §1

Streptococcus Bovis = conditions: Streptococcus equinus, strain A5169, BHI agar, 20-24 hours
How it was run: as §1

[1] = system: Staphylococcus Epidermidis; conditions: strain 3519, BHI agar, 20-24 hours
How it was run: as §1

Haemophilus Influenzae = conditions: BHI agar, 20-24 hours
How it was run: as §1

Acinetobacter Sp = conditions: strain CMX 669, BHI agar, 20-24 hours
How it was run: as §1

Pseudomonas Aeruginosa = conditions: BHI agar, 20-24 hours
How it was run: as §1

Streptococcus Agalactiae = system: Streptococcus Agalactiae
How it was run: as §1

Escherichia Coli = conditions: BHI agar, 20-24 hours
How it was run: (§2)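 Agar dilution on BHI agar, typically 12 two-fold dilutions prepared from a 2,000 ug/mL stock solution. Plates were spot-inoculated with about 10^4 organisms from overnight BHI broth cultures, then incubated 20-24 h at 35°-37° C. MIC was the lowest concentration giving no growth, a slight haze or sparse isolated colonies compared with the growth control.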

Pseudomonas Cepacia = conditions: Burkholderia cepacia; strain 296I; BHI agar, 20-24 hours; read-out: MIC
How it was run: as §2

[2] = Streptococcus pyogenes, strain 930 CONST, BHI agar, 20-24 hours, read-out: MIC
[3] = Micrococcus luteus, ATCC9341, strain ATCC 9341, read-out: MIC
[4] = Haemophilus influenzae, ATCC9795, strain ATCC 9795, read-out: MIC
[5] = Haemophilus influenzae, ATCC19418, strain ATCC 19418, read-out: MIC
[6] = Haemophilus influenzae, ATCC43095, strain ATCC 43095, read-out: MIC
[7] = Haemophilus influenzae, strain 566A, read-out: MIC
[8] = Haemophilus influenzae, strain 588A, read-out: MIC
[9] = Haemophilus influenzae, strain 632A, read-out: MIC
[10] = Haemophilus influenzae, strain 747C, read-out: MIC
[11] = Haemophilus influenzae, strain SOL AMP R, read-out: MIC
[12] = Haemophilus influenzae, strain SPK AMP R, read-out: MIC
[13] = Pseudomonas aeruginosa, strain A5007, read-out: MIC
[14] = Pseudomonas aeruginosa, strain BMH10, read-out: MIC
[15] = Pseudomonas aeruginosa, strain K799/WT, read-out: MIC
[16] = Escherichia coli, strain SS, read-out: MIC

Question: Which results are given for CCC1OC(=O)CC(O)C(C)C(OC2OC(C)CC(N(C)C)C2O)C(CC=O)CC(C)C(N(C)C)CCC2(C)OC2C1C (stereo not shown) [Example 2, [9R]-9-Deoxo-10,11-dihydro-9-N,N-dimethylamino-rosaramicin]?
Answer: MIC (Enterobacter Aerogenes; strain ATCC 13048): 100 µg/mL (≈ 163 µM); MIC (Enterococcus Faecium; strain ATCC 8043): 12.5 µg/mL (≈ 20.4 µM); MIC (Staphylococcus Aureus; strain 45): 25 µg/mL (≈ 40.8 µM); MIC (Staphylococcus Aureus; strain 45 RAR2): 25 µg/mL (≈ 40.8 µM); MIC (Staphylococcus Aureus; strain 642A): 50 µg/mL (≈ 81.6 µM); MIC (Staphylococcus Aureus; strain A5177): 25 µg/mL (≈ 40.8 µM); MIC (Staphylococcus Aureus; strain ATCC 6538P): 25 µg/mL (≈ 40.8 µM); MIC (Staphylococcus Aureus; strain CMX 553): 25 µg/mL (≈ 40.8 µM); MIC (Staphylococcus Aureus; strain NCTC 10649): 25 µg/mL (≈ 40.8 µM); MIC (Streptococcus Pyogenes; [2]): > 100 µg/mL; MIC (Streptococcus Pyogenes; Streptococcus pyogenes, strain EES61, BHI agar, 20-24 hours, read-out: MIC): 3.1 µg/mL (≈ 5.06 µM); MIC (Streptococcus Pyogenes; strain 2548 INDUC, BHI agar, 20-24 hours): 6.2 µg/mL (≈ 10.1 µM); MIC (Micrococcus Luteus; [3]): 3.1 µg/mL (≈ 5.06 µM); MIC (Micrococcus Luteus; strain ATCC 4698): 6.2 µg/mL (≈ 10.1 µM); MIC (Providencia Stuartii): > 100 µg/mL; MIC (Klebsiella Pneumoniae; strain ATCC 8045): 25 µg/mL (≈ 40.8 µM); MIC (Streptococcus Bovis; read-out: MIC): 1.56 µg/mL (≈ 2.55 µM); MIC [1]: 25 µg/mL (≈ 40.8 µM); MIC (Haemophilus Influenzae; [4]): 2 µg/mL (≈ 3.26 µM); MIC (Haemophilus Influenzae; [5]): 4 µg/mL (≈ 6.53 µM); MIC (Haemophilus Influenzae; [6]): 4 µg/mL (≈ 6.53 µM); MIC (Haemophilus Influenzae; [7]): 2 µg/mL (≈ 3.26 µM); MIC (Haemophilus Influenzae; [8]): 2 µg/mL (≈ 3.26 µM); MIC (Haemophilus Influenzae; [9]): 2 µg/mL (≈ 3.26 µM); MIC (Haemophilus Influenzae; [10]): 2 µg/mL (≈ 3.26 µM); MIC (Haemophilus Influenzae; [11]): 2 µg/mL (≈ 3.26 µM); MIC (Haemophilus Influenzae; [12]): 0.5 µg/mL (≈ 0.816 µM); MIC (Haemophilus Influenzae; strain 503B): 2 µg/mL (≈ 3.26 µM); MIC (Haemophilus Influenzae; strain 504): 2 µg/mL (≈ 3.26 µM); MIC (Haemophilus Influenzae; strain 519A): 1 µg/mL (≈ 1.63 µM); MIC (Haemophilus Influenzae; strain 667A): 2 µg/mL (≈ 3.26 µM); MIC (Haemophilus Influenzae; strain 751): 1 µg/mL (≈ 1.63 µM); MIC (Haemophilus Influenzae; strain 1177): 0.25 µg/mL (≈ 0.408 µM); MIC (Haemophilus Influenzae; strain 1435): 1 µg/mL (≈ 1.63 µM); MIC (Haemophilus Influenzae; strain ATCC 10211): 2 µg/mL (≈ 3.26 µM); MIC (Acinetobacter Sp): 25 µg/mL (≈ 40.8 µM); MIC (Pseudomonas Aeruginosa; [13]): > 100 µg/mL; MIC (Pseudomonas Aeruginosa; [14]): > 100 µg/mL; MIC (Pseudomonas Aeruginosa; [15]): > 100 µg/mL; MIC (Pseudomonas Aeruginosa; strain K799/61): 3.1 µg/mL (≈ 5.06 µM); MIC (Streptococcus Agalactiae; strain CMX 508, BHI agar, 20-24 hours): 3.1 µg/mL (≈ 5.06 µM); MIC (Escherichia Coli; [16]): 0.2 µg/mL (≈ 0.326 µM); MIC (Escherichia Coli; strain DC-2): 50 µg/mL (≈ 81.6 µM); MIC (Escherichia Coli; strain JUHL): 100 µg/mL (≈ 163 µM); MIC (Escherichia Coli; strain KNK 437): 50 µg/mL (≈ 81.6 µM); MIC (Pseudomonas Cepacia): > 100 µg/mL

Question: Which results are given for CCC1OC(=O)CC(O)C(C)C(OC2OC(C)CC(N(C)C)C2O)C(CC=O)CC(C)C(N(C)C)C=CC(C)=CC1COC(C)=O (stereo not shown) [Example 5, [9R]-23-O-Acetyl-9-deoxo-4'-deoxy-9-N,N-dimethylamino-5-O-mycaminosyl-tylonide]?
Answer: MIC (Enterobacter Aerogenes; Klebsiella aerogenes, ATCC13048, strain ATCC 13048, read-out: MIC): 50 µg/mL (≈ 76.6 µM); MIC (Enterococcus Faecium; Enterococcus faecium, ATCC8043, strain ATCC 8043, read-out: MIC): 0.1 µg/mL (≈ 0.153 µM); MIC (Staphylococcus Aureus; Staphylococcus aureus, ATCC6538P, strain ATCC 6538P, read-out: MIC): 0.39 µg/mL (≈ 0.597 µM); MIC (Staphylococcus Aureus; Staphylococcus aureus, NCTC10649, strain NCTC 10649, read-out: MIC): 0.39 µg/mL (≈ 0.597 µM); MIC (Staphylococcus Aureus; Staphylococcus aureus, strain 45, read-out: MIC): 0.39 µg/mL (≈ 0.597 µM); MIC (Staphylococcus Aureus; Staphylococcus aureus, strain 45 RAR2, read-out: MIC): 0.78 µg/mL (≈ 1.19 µM); MIC (Staphylococcus Aureus; Staphylococcus aureus, strain 642A, read-out: MIC): 0.78 µg/mL (≈ 1.19 µM); MIC (Staphylococcus Aureus; Staphylococcus aureus, strain A5177, read-out: MIC): 0.39 µg/mL (≈ 0.597 µM); MIC (Staphylococcus Aureus; Staphylococcus aureus, strain CMX 553, read-out: MIC): 0.78 µg/mL (≈ 1.19 µM); MIC (Streptococcus Pyogenes; Streptococcus pyogenes): 0.05 µg/mL (≈ 0.0766 µM); MIC (Streptococcus Pyogenes; [2]): 50 µg/mL (≈ 76.6 µM); MIC (Streptococcus Pyogenes; Streptococcus pyogenes, strain 2548 INDUC, BHI agar, 20-24 hours, read-out: MIC): 0.2 µg/mL (≈ 0.306 µM); MIC (Micrococcus Luteus; Micrococcus luteus, ATCC4698, strain ATCC 4698, read-out: MIC): 0.1 µg/mL (≈ 0.153 µM); MIC (Micrococcus Luteus; [3]): 0.1 µg/mL (≈ 0.153 µM); MIC (Providencia Stuartii): > 100 µg/mL; MIC (Klebsiella Pneumoniae; Klebsiella pneumoniae, ATCC8045, strain ATCC 8045, read-out: MIC): 25 µg/mL (≈ 38.3 µM); MIC (Streptococcus Bovis): 0.05 µg/mL (≈ 0.0766 µM); MIC ([1]; Staphylococcus epidermidis, read-out: MIC): 0.39 µg/mL (≈ 0.597 µM); MIC (Haemophilus Influenzae; [4]): 2 µg/mL (≈ 3.06 µM); MIC (Haemophilus Influenzae; Haemophilus influenzae, ATCC10211, strain ATCC 10211, read-out: MIC): 2 µg/mL (≈ 3.06 µM); MIC (Haemophilus Influenzae; [5]): 2 µg/mL (≈ 3.06 µM); MIC (Haemophilus Influenzae; [6]): 2 µg/mL (≈ 3.06 µM); MIC (Haemophilus Influenzae; Haemophilus influenzae, strain 503B, read-out: MIC): 2 µg/mL (≈ 3.06 µM); MIC (Haemophilus Influenzae; Haemophilus influenzae, strain 504, read-out: MIC): 1 µg/mL (≈ 1.53 µM); MIC (Haemophilus Influenzae; Haemophilus influenzae, strain 519A, read-out: MIC): 1 µg/mL (≈ 1.53 µM); MIC (Haemophilus Influenzae; [7]): 4 µg/mL (≈ 6.13 µM); MIC (Haemophilus Influenzae; [8]): 2 µg/mL (≈ 3.06 µM); MIC (Haemophilus Influenzae; [9]): 2 µg/mL (≈ 3.06 µM); MIC (Haemophilus Influenzae; Haemophilus influenzae, strain 667A, read-out: MIC): 2 µg/mL (≈ 3.06 µM); MIC (Haemophilus Influenzae; [10]): 2 µg/mL (≈ 3.06 µM); MIC (Haemophilus Influenzae; Haemophilus influenzae, strain 751, read-out: MIC): 4 µg/mL (≈ 6.13 µM); MIC (Haemophilus Influenzae; Haemophilus influenzae, strain 1177, read-out: MIC): 0.12 µg/mL (≈ 0.184 µM); MIC (Haemophilus Influenzae; Haemophilus influenzae, strain 1435, read-out: MIC): 1 µg/mL (≈ 1.53 µM); MIC (Haemophilus Influenzae; Haemophilus influenzae, strain DILL AMP R, read-out: MIC): 2 µg/mL (≈ 3.06 µM); MIC (Haemophilus Influenzae; [11]): 2 µg/mL (≈ 3.06 µM); MIC (Haemophilus Influenzae; [12]): 2 µg/mL (≈ 3.06 µM); MIC (Acinetobacter Sp; Acinetobacter, read-out: MIC): 3.1 µg/mL (≈ 4.75 µM); MIC (Pseudomonas Aeruginosa; [13]): > 100 µg/mL; MIC (Pseudomonas Aeruginosa; [14]): 100 µg/mL (≈ 153 µM); MIC (Pseudomonas Aeruginosa; Pseudomonas aeruginosa, strain K799/61, read-out: MIC): 1.56 µg/mL (≈ 2.39 µM); MIC (Pseudomonas Aeruginosa; [15]): > 100 µg/mL; MIC (Streptococcus Agalactiae; Streptococcus agalactiae): 0.05 µg/mL (≈ 0.0766 µM); MIC (Escherichia Coli; Escherichia coli, strain DC-2, read-out: MIC): 6.2 µg/mL (≈ 9.5 µM); MIC (Escherichia Coli; Escherichia coli, strain H560, read-out: MIC): 3.1 µg/mL (≈ 4.75 µM); MIC (Escherichia Coli; Escherichia coli, strain JUHL, read-out: MIC): 12.5 µg/mL (≈ 19.1 µM); MIC (Escherichia Coli; Escherichia coli, strain KNK 437, read-out: MIC): 12.5 µg/mL (≈ 19.1 µM); MIC (Escherichia Coli; [16]): 0.2 µg/mL (≈ 0.306 µM); MIC (Pseudomonas Cepacia): > 100 µg/mL
